Assays:
ISA brown hens [1] = assay: Egg laying performance of hens fed supplemented diet (egg weight, egg production); type: in vivo; details: for Egg weight / Egg production: 6 weeks; for Egg production: percent hen day production
Procedure: (§1) Healthy ISA brown hens, 45-week old, were assigned randomly to each dietary group (control group, 8 birds; experimental group, 6 birds each). Each bird was placed in an individual cage in an environmentally controlled room (25° C., 50% relative humidity, 16L:8D). The hens were allowed for 2 weeks in which to adapt to the feed with no additives and the housing. Control birds were fed a commercial diet based on corn and soybean meal (Table 1), while birds in experimental groups were fed diets supplemented with 0.003 or 0.03% of compactin (Sigma Aldrich Korea) for 6 weeks. Feed and water were provided ad libitum throughout the experiment. Feed consumption, egg production and egg weight were recorded daily. Egg production was expressed as percent hen day production; (100×number of eggs laid)/(number of hens×days).
The effects of 0.003% or 0.03% compactin on the laying performance of 45-week old ISA brown hens were investigated (Table 2). Egg weight was maintained at more than 60 grams after 6 weeks of oral administrations of compactin at both doses. […] Maintenance of laying performance with compactin feeding is of contrast to the previous art in which atorvastatin reduced egg production down to 70% after feeding for 5-week.
Egg production and yolk cholesterol analysis was performed with 0.003 and 0.03% pravastatin administered group with the same procedure as described in Example 1 above. Hen performance was investigated by measuring egg weight and egg production as in Table 4. Pravastatin group had maintained above 80% of egg production rate after 6-week administration, same as control.
Egg production and yolk cholesterol analysis was performed with the same procedure as described in Example 1 above except 0.5 and 1% of Streptomyces cell precipitates and bioconversion reaction broth were administered instead of compactin. Hen performance was investigated by measuring egg weight and egg production as in Table 6.

ISA brown hens [2] = assay: Egg cholesterol analysis (yolk weight, yolk cholesterol by gas chromatography) of hens fed supplemented diet; type: in vivo; details: for Cholesterol content / Cholesterol content change / Cholesterol concentration: 6 weeks; for Cholesterol content change: compared to control; for Cholesterol concentration: per gram of yolk; for Total yolk/egg cholesterol content, percentage change (reduction) compared to control: 0.03% in feed; for Egg york weight: 6 weeks (Table 5)
Procedure: as §1
For egg cholesterol analysis, eggs from each bird were collected and egg yolk was separated, weighed, and sampled for analysis. Lipids from eggs were extracted by the method of Folch et al. (1957). Briefly, one gram of sample was saponified with 3 mL of 33% KOH and incubated with 30 mL of 95% methanol in a 65° C. water bath for 90 min. After saponification, 10 mL hexane and 3 mL water were added, followed by vigorous shaking for 10 min. 5α-cholestan (Sigma C-8300) was used as an internal standard. Cholesterol content was determined by a gas chromatography (Shimadzu, Japan) using column VB-1 (30 m×0.25 mm×0.25 μm, VICI Inc.) with a split ratio of 100:1 and nitrogen as carrier gas for a column flow rate of 0.54 mL/min. Injector, column, and detector temperatures were 275° C., 290° C., and 340° C., respectively.
Egg production and yolk cholesterol analysis was performed with 0.003 and 0.03% pravastatin administered group with the same procedure as described in Example 1 above. Hen performance was investigated by measuring egg weight and egg production as in Table 4. […]

[3] = clinical trials / prescription drug development; cited from earlier work
egg-laying chickens [4] = details: previous art, cited from earlier work
egg-laying chickens [5] = details: previous art, cited from earlier work; remark: listed apart in the source

Row | Compound | Cholesterol content (ISA brown hens [2]; 0.003 weight % added to feed) | Cholesterol content change (ISA brown hens [2]; 0.003 weight % added to feed) | Cholesterol concentration (ISA brown hens [2]; 0.003 weight % added to feed) | Total yolk/egg cholesterol content, percentage change (reduction) compared to control (ISA brown hens [2]; given without sign) | Cholesterol content (ISA brown hens [2]; 0.03 weight % added to feed) | Cholesterol content change (ISA brown hens [2]; 0.03 weight % added to feed) | Cholesterol concentration (ISA brown hens [2]; 0.03 weight % added to feed) | Toxicity [3] | further results
1 | CC[C@H](C)C(=O)O[C@H]1CCC=C2C=C[C@H](C)[C@H](CC[C@@H]3C[C@@H](O)CC(=O)O3)[C@H]21 [Compactin, compactin] | 185 mg/egg | −16% | 11.2 ± 0.3 mg/g | 29% | 156 mg/egg | −29% | 10.5 ± 0.2 mg/g | serious toxicity | Egg production compared to the control group (ISA brown hens [1]; in vivo): did not cause any difference in egg production; Total yolk cholesterol content, percentage change (reduction) compared to control (ISA brown hens [2]; 0.003% in feed, given without sign): 16%
2 | CC(C)c1c(C(=O)Nc2ccccc2)c(-c2ccccc2)c(-c2ccc(F)cc2)n1CC[C@@H](O)C[C@@H](O)CC(=O)O [atorvastatin] | – | – | – | – | – | – | – | – | Cholesterol-lowering effect in eggs (egg-laying chickens [4]; 0.03-0.06% fed for 5 weeks): satisfactory; Egg production reduced down to (egg-laying chickens [5]; after feeding for 5-week): 70%; Decrease of egg production rate compared to control (egg-laying chickens [5]): more than 15%; Effect of oral administration on egg production (egg-laying chickens [5]): decrease egg production
3 | CC[C@H](C)C(=O)O[C@H]1C[C@@H](C)C=C2C=C[C@H](C)[C@H](CC[C@@H]3C[C@@H](O)CC(=O)O3)[C@H]21 [lovastatin] | – | – | – | – | – | – | – | – | Reduction of egg cholesterol level (egg-laying chickens [4]; at its high dose): 3-6%
4 | pravastatin | 207 mg/egg | −6% | 12.5 ± 0.5 mg/g | 24% | 167 mg/egg | −24% | 10.4 ± 0.5 mg/g | not toxic | Egg weight (ISA brown hens [1]; 0.003 weight % added to feed): 62.5 ± 0.3 g; Egg production (ISA brown hens [1]; 0.003 weight % added to feed): 84%; Egg weight (ISA brown hens [1]; 0.03 weight % added to feed): 58.8 ± 0.7 g; Egg production (ISA brown hens [1]; 0.03 weight % added to feed): 82%; Egg production rate maintained (ISA brown hens [1]; after 6-week administration, 0.003 and 0.03%): above 80%; Egg york weight (ISA brown hens [2]; 0.003 weight % added to feed): 16.5 ± 0.4 g; Egg york weight (ISA brown hens [2]; 0.03 weight % added to feed): 16.1 ± 0.4 g

— patent US20090171621A1, “MEASURING THE DISTANCE BETWEEN DEVICES” (KONINKLIJKE PHILIPS ELECTRONICS, N.V., priority 2004, published 2009)
